Measured values reported in ChEMBL document CHEMBL5465560, “Selectivity Literature for EUbOPEN Chemogenomic Library” (2024).

Key:
[1] = target: T1, Serine/threonine-protein kinase Nek3 (Homo sapiens) (UniProt P51956); experiment: Selectivity interaction (KinomeScan (DiscoverX)) EUB0001079a NEK3; details: at 1 µM
T1 sequence (whole entry): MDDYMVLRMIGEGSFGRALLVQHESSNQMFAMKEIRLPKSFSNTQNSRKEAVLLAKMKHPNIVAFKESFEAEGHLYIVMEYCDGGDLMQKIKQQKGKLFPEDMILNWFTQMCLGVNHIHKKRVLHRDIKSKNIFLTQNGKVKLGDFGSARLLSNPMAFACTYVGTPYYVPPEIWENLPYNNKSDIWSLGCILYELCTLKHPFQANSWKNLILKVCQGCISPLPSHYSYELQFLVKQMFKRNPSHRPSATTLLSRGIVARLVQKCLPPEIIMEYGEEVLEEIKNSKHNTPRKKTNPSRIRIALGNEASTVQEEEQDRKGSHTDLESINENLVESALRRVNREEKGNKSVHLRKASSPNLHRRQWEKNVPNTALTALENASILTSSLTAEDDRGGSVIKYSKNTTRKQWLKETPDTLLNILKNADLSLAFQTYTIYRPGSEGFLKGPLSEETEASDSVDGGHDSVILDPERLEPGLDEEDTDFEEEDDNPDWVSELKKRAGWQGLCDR

[2] = target: T2, Serine/threonine-protein kinase D1 (Homo sapiens) (UniProt Q15139); details: at 10 µM
T2 sequence (whole entry): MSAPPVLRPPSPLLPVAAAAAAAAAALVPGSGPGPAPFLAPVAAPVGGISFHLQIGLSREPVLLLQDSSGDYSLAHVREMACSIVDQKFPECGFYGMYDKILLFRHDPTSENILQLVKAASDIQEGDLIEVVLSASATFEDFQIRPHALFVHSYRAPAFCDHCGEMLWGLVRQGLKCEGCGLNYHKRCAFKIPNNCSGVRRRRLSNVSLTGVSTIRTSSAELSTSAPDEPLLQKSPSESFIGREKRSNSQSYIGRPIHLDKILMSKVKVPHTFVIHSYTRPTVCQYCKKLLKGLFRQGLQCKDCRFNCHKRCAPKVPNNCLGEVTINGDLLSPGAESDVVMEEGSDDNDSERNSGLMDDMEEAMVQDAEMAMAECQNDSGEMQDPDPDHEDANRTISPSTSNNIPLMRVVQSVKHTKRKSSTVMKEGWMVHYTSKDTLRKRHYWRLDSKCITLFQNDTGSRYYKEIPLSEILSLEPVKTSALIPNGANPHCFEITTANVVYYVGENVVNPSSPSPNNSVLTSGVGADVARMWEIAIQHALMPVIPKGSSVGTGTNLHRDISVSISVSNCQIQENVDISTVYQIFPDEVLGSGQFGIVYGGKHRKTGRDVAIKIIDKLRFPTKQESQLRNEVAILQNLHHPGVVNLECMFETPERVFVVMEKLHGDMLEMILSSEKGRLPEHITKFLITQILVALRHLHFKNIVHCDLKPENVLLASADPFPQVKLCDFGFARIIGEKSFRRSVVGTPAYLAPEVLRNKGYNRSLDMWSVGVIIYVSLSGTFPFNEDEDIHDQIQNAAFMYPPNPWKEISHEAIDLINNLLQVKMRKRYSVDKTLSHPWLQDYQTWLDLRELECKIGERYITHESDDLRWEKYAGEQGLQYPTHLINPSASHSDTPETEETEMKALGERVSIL

[3] = target: Voltage-dependent N-type calcium channel subunit alpha-1B (Homo sapiens) (UniProt Q00975); experiment: Selectivity interaction (Eurofins CEREP Diversity Profile (receptors and ion channels)) EUB0000279b CACNA1B; details: at 10 µM
Sequence of Voltage-dependent N-type calcium channel subunit alpha-1B (Homo sapiens) (Q00975 whole entry, looked up): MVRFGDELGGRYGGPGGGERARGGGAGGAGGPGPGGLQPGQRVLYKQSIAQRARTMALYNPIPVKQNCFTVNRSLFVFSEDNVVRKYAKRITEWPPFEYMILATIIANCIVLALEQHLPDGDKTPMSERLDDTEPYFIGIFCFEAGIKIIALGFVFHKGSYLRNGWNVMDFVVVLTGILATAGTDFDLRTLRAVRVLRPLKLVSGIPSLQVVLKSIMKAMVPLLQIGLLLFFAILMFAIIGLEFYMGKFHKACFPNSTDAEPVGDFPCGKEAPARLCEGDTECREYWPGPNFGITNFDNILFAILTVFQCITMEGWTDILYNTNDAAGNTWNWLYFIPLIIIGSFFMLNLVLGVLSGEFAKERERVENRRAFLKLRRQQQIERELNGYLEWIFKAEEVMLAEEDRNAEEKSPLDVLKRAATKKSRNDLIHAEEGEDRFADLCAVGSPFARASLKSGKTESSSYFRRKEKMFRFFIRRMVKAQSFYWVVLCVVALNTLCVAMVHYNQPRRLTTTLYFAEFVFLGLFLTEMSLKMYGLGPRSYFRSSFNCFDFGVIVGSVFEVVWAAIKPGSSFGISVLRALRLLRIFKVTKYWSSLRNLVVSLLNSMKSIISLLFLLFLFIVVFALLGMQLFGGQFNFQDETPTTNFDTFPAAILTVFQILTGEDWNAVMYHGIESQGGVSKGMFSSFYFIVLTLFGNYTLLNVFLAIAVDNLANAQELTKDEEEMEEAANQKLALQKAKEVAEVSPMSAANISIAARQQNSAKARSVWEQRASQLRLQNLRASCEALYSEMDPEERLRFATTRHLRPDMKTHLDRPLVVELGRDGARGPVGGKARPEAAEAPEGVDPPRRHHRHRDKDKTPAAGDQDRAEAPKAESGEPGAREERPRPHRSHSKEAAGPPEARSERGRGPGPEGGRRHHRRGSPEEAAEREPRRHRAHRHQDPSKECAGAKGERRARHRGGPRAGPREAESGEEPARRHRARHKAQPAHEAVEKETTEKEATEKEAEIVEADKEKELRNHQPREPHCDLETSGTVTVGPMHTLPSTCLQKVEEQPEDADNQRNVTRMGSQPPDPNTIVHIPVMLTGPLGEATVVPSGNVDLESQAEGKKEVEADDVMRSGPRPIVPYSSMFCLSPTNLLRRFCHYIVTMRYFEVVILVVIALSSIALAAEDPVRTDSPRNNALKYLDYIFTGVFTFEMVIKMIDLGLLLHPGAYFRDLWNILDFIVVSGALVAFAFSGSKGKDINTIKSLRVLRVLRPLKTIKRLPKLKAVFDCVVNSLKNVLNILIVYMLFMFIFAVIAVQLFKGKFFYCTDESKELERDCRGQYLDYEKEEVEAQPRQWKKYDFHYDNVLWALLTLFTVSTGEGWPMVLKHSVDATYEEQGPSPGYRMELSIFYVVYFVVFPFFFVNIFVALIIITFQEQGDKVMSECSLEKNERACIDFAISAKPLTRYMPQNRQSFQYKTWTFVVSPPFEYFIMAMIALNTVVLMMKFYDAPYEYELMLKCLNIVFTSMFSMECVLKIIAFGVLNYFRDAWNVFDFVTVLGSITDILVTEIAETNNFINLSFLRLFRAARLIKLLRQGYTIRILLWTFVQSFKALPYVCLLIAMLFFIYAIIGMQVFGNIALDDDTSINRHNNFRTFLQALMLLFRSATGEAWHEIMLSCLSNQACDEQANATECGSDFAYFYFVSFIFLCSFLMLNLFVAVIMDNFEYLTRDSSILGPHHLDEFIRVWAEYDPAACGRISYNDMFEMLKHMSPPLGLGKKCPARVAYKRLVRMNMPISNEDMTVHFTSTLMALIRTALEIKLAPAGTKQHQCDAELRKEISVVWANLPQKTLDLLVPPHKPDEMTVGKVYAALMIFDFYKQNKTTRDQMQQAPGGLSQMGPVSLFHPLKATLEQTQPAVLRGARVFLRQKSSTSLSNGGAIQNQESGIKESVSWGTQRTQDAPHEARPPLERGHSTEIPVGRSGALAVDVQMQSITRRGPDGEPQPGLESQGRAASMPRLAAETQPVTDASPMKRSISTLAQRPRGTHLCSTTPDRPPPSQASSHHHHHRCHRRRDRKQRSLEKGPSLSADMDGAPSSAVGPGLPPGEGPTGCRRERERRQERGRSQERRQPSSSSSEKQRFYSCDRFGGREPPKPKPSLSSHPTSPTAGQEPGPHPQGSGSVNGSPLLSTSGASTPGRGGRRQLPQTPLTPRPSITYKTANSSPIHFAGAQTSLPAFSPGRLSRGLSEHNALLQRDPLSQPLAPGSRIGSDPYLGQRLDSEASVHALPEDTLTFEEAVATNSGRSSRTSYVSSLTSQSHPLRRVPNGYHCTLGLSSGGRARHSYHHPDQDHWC

[4] = target: Muscarinic acetylcholine receptor M2 (Homo sapiens, UniProt P08172); experiment: Selectivity interaction (Muscarinic M2 Calcium flux assay, agonist and antagonist mode ) EUB0000877a CHRM2
Sequence of Muscarinic acetylcholine receptor M2 (P08172 whole entry): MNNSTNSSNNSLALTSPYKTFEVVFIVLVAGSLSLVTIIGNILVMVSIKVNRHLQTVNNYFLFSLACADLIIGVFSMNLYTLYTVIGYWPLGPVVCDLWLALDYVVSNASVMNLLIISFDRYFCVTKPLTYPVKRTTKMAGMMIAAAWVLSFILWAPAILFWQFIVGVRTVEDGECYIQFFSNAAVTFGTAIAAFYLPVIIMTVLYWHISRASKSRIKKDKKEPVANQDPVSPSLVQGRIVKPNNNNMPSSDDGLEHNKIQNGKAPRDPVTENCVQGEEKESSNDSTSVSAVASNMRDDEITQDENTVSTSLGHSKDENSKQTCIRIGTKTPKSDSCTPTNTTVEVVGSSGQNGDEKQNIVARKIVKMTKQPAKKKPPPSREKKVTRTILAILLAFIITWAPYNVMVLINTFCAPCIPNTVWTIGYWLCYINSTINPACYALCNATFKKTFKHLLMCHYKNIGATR

[5] = target: T3, Tyrosine-protein kinase ZAP-70 (Homo sapiens) (UniProt P43403); experiment: Selectivity interaction (KinomeScan (DiscoverX)) EUB0001619a ZAP70; details: at 1 µM
T3 sequence (whole entry): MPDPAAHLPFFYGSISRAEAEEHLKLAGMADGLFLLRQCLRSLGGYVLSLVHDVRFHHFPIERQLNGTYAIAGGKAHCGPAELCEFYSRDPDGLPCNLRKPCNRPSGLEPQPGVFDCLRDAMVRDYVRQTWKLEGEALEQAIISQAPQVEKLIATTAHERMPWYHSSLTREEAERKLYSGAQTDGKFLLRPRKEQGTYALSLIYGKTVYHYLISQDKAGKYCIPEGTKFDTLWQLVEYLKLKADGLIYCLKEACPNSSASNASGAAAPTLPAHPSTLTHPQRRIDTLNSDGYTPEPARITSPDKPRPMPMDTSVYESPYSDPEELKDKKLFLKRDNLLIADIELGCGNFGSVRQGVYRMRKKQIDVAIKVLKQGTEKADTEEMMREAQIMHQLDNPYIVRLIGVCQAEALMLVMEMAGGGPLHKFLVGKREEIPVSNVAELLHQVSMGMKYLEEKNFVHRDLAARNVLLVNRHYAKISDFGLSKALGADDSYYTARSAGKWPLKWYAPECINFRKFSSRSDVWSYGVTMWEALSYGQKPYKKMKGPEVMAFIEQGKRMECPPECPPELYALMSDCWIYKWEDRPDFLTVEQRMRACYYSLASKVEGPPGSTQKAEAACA

[6] = target: Adenosine receptor A2a (Homo sapiens, UniProt P29274); experiment: Selectivity interaction (Panel of kinases, GPCRs, ion channels and transporters (enzymatic assay)) EUB0000266bCl ADORA2A
Sequence of Adenosine receptor A2a (P29274 whole entry): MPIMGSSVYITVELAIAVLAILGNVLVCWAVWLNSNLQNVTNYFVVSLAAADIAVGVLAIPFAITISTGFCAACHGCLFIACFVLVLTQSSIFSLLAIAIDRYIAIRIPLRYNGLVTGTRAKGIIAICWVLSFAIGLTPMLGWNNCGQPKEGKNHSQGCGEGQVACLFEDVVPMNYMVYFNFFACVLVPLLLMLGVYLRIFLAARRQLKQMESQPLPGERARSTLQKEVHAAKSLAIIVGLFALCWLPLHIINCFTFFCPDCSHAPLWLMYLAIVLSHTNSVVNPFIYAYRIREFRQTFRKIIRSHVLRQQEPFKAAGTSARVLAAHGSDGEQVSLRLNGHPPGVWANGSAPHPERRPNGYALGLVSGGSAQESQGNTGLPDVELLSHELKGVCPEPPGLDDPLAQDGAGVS

[7] = target: Ribosomal protein S6 kinase alpha-1 (Homo sapiens, UniProt Q15418); experiment: Selectivity interaction (ActivX KiNativ screen (kinase selectivity in THP-1 cell lysates)) EUB0000639a RPS6KA1; type: subcellular; details: lysate, at 5 µM
Sequence of Ribosomal protein S6 kinase alpha-1 (Q15418 whole entry): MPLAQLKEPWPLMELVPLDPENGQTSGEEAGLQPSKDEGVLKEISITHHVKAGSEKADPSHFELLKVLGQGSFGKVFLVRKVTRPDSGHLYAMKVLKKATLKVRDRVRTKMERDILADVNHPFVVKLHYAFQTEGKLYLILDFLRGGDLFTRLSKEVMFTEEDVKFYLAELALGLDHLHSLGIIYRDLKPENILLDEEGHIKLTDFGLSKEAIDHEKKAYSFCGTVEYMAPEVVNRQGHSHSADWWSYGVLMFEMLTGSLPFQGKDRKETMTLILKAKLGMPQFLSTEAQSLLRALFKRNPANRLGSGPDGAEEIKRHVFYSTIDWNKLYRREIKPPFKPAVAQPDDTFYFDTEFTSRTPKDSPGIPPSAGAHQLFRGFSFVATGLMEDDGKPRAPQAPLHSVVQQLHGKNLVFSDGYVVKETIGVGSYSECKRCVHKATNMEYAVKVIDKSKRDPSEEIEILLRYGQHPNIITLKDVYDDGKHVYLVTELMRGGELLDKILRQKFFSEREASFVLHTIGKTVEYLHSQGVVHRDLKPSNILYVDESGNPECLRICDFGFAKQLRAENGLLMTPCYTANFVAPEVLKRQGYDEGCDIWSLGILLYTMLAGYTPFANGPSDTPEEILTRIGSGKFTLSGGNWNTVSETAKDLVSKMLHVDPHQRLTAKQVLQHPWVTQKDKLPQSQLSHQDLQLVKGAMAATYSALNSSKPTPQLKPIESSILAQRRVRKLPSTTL

[8] = target: Cyclin-dependent kinase 7 (Homo sapiens, UniProt P50613); experiment: Selectivity interaction (ActivX KiNativ screen (kinase selectivity in THP-1 cell lysates)) EUB0000639a CDK7; type: subcellular; details: lysate, at 0.01 µM
Sequence of Cyclin-dependent kinase 7 (P50613 whole entry): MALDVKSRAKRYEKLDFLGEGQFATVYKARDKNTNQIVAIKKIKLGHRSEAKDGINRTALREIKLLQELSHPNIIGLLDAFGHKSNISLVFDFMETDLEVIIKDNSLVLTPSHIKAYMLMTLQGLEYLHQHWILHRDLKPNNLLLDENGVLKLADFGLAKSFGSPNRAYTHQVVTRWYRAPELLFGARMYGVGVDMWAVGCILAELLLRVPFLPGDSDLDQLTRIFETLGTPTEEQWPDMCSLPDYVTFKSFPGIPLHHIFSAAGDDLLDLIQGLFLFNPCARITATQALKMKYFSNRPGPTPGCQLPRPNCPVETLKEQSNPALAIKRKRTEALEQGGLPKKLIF

[9] = target: Cyclin-dependent kinase 2 (Homo sapiens, UniProt P24941); experiment: Selectivity interaction (KinomeScan (DiscoverX)) EUB0000092b CDK2; details: at 10 µM

Nc1cnc(N2CCc3cc(S(=O)(=O)Nc4c(F)cc(Cl)cc4F)cc(N4CCCC4=O)c32)nc1 [TP-020n]
% of control [1]: 100%

Cc1cc([C@@H](C)Nc2ccccc2C(=O)O)c2nc(N3CCOCC3)cc(=O)n2c1 [AZD-6482]
% of control [2]: 89%

CC(=O)c1cc(-c2ccccc2OCC2CC2)c2ncccn12
% of control [3]: 115%

CCC(=O)N1CC[C@H](Nc2ncnc3c2CN(c2cnc(OC)c(C(F)(F)F)c2)CC3)C1 [LENIOLISIB]
IC50 [4]: > 30 µM

N#Cc1cccc(-c2c[nH]c3ncnc(N4CCOCC4)c23)c1
% of control [5]: 96%

CCn1c(-c2nc3cc(C(=O)N4CCCC(N)C4)ccc3n2C)cc2ccccc21 (centres undefined)
pXC50 [6]: < 4.5 M

CC[C@@H]1[C@H](F)C(=O)N[C@@H]1COc1nccc2cc(C(N)=O)c(OC)cc12 [ZIMLOVISERTIB]
% of inhibition [7]: 0.2% | % of inhibition [8]: -3%

CCC(=O)N1CCN(c2ccc(-n3c(=O)ccc4cnc5ccc(-c6cnc7ccccc7c6)cc5c43)cc2C(F)(F)F)CC1
% of control [9]: 6.2%
